Reference: ChEMBL document CHEMBL5303573, “Mapping human microbiome drug metabolism by gut bacteria and their genes” (Nature, 2019)

Assays:
[1] = The drug is tested on Enterococcus faecalis strain: V583 for biotransformation. The drug concentrations were measured before and after a 12-h incubation by liquid-chromatography-coupled mass spectrometry (LC–MS); conditions: 2 µM
[2] = anaerostipes sp., 12 h, 2 µM
Description: The drug is tested on Anaerostipes sp. strain: fecal isolate for biotransformation. The drug concentrations were measured before and after a 12-h incubation by liquid-chromatography-coupled mass spectrometry (LC–MS)

[3] = victivallis vadensis, 12 h, 2 µM
Description: The drug is tested on Victivallis vadensis strain: ATCC BAA-548 for biotransformation. The drug concentrations were measured before and after a 12-h incubation by liquid-chromatography-coupled mass spectrometry (LC–MS)

[4] = roseburia intestinalis, 12 h, 2 µM
Description: The drug is tested on Roseburia intestinalis strain: L1-82 for biotransformation. The drug concentrations were measured before and after a 12-h incubation by liquid-chromatography-coupled mass spectrometry (LC–MS)

[5] = bacteroides thetaiotaomicron, 12 h, 2 µM
Description: The drug is tested on Bacteroides thetaiotaomicron strain: VPI-5482 for biotransformation. The drug concentrations were measured before and after a 12-h incubation by liquid-chromatography-coupled mass spectrometry (LC–MS)

[6] = bacteroides fragilis, 12 h, 2 µM
Description: The drug is tested on Bacteroides fragilis strain: NCTC 9343 for biotransformation. The drug concentrations were measured before and after a 12-h incubation by liquid-chromatography-coupled mass spectrometry (LC–MS)

[7] = The drug is tested on Eggerthella lenta strain: ATCC25559 for biotransformation. The drug concentrations were measured before and after a 12-h incubation by liquid-chromatography-coupled mass spectrometry (LC–MS); conditions: 2 µM

Row | Structure (SMILES) | Bacterial Biotransformation [1] | Bacterial Biotransformation [2] | Bacterial Biotransformation [3] | Bacterial Biotransformation [4] | Bacterial Biotransformation [5] | Bacterial Biotransformation [6] | Bacterial Biotransformation [7]
1 | CCN(CC)CCNC(C(=O)OCCC(C)C)c1ccccc1.Cl.Cl (stereo not drawn) | Compound NOT metabolized | Compound NOT metabolized | Compound NOT metabolized | Compound NOT metabolized | Compound NOT metabolized | – | –
2 | N=C(N)NC(=O)Cc1c(Cl)cccc1Cl [GUANFACINE] | Compound NOT metabolized | Compound NOT metabolized | Compound NOT metabolized | Compound NOT metabolized | Compound NOT metabolized | Compound NOT metabolized | –
3 | CC(C)(C)N.CCC[C@H](N[C@@H](C)C(=O)N1[C@H](C(=O)O)C[C@@H]2CCCC[C@@H]21)C(=O)OCC [PERINDOPRIL ERBUMINE] | Compound NOT metabolized | Compound NOT metabolized | Compound NOT metabolized | Compound NOT metabolized | Compound NOT metabolized | Compound NOT metabolized | –
4 | C[C@]12C=CC(=O)C=C1CC[C@@H]1[C@@H]2C(=O)C[C@@]2(C)[C@H]1CC[C@]2(O)C(=O)CO [PREDNISONE] | Compound NOT metabolized | Compound NOT metabolized | Compound NOT metabolized | Compound NOT metabolized | Compound NOT metabolized | Compound NOT metabolized | –
5 | CS(=O)(=O)O.OC(CCN1CCCCC1)(c1ccccc1)c1ccccc1 [PRIDINOL METHANESULFONATE] | – | Compound NOT metabolized | Compound NOT metabolized | Compound NOT metabolized | Compound NOT metabolized | Compound NOT metabolized | Compound NOT metabolized
6 | CNNCc1ccc(C(=O)NC(C)C)cc1 [PROCARBAZINE] | Compound NOT metabolized | Compound NOT metabolized | Compound NOT metabolized | Compound NOT metabolized | Compound NOT metabolized | Compound NOT metabolized | –
7 | CCN(CC)CCCC(C)Nc1c2ccc(Cl)cc2nc2ccc(OC)cc12 (stereo not drawn) [QUINACRINE] | – | Compound NOT metabolized | Compound NOT metabolized | Compound NOT metabolized | Compound NOT metabolized | Compound NOT metabolized | Compound NOT metabolized
8 | CCN(C)C(=O)Oc1cccc([C@H](C)N(C)C)c1.O=C(O)C(O)C(O)C(=O)O [RIVASTIGMINE TARTRATE] | Compound NOT metabolized | Compound NOT metabolized | Compound NOT metabolized | Compound NOT metabolized | Compound NOT metabolized | – | Compound NOT metabolized
9 | CN(C)CCc1c[nH]c2ccc(Cn3cncn3)cc12.O=C(O)c1ccccc1 [RIZATRIPTAN BENZOATE] | Compound NOT metabolized | – | Compound NOT metabolized | Compound NOT metabolized | – | – | Compound NOT metabolized
10 | CCCN(CCC)CCc1cccc2c1CC(=O)N2 [ROPINIROLE] | Compound NOT metabolized | Compound NOT metabolized | Compound NOT metabolized | Compound NOT metabolized | – | Compound NOT metabolized | Compound NOT metabolized
11 | CC(C)c1nc(N(C)S(C)(=O)=O)nc(-c2ccc(F)cc2)c1/C=C/[C@@H](O)C[C@@H](O)CC(=O)[O-].CC(C)c1nc(N(C)S(C)(=O)=O)nc(-c2ccc(F)cc2)c1/C=C/[C@@H](O)C[C@@H](O)CC(=O)[O-].[Ca+2] [ROSUVASTATIN CALCIUM] | Compound NOT metabolized | Compound NOT metabolized | Compound NOT metabolized | Compound NOT metabolized | – | Compound NOT metabolized | –
12 | O=C(O)CCC(=O)O.O=C(O[C@H]1CN2CCC1CC2)N1CCc2ccccc2[C@@H]1c1ccccc1 [SOLIFENACIN SUCCINATE] | Compound NOT metabolized | Compound NOT metabolized | Compound NOT metabolized | Compound NOT metabolized | – | Compound NOT metabolized | Compound NOT metabolized
13 | CNS(=O)(=O)Cc1ccc2[nH]cc(CCN(C)C)c2c1.O=C(O)CCC(=O)O [SUMATRIPTAN SUCCINATE] | Compound NOT metabolized | Compound NOT metabolized | Compound NOT metabolized | Compound NOT metabolized | Compound metabolized | Compound NOT metabolized | –
14 | C=CC[C@@H]1/C=C(\C)C[C@H](C)C[C@H](OC)[C@H]2O[C@@](O)(C(=O)C(=O)N3CCCC[C@H]3C(=O)O[C@H](/C(C)=C/[C@@H]3CC[C@@H](O)[C@H](OC)C3)[C@H](C)[C@@H](O)CC1=O)[C@H](C)C[C@@H]2OC.O [TACROLIMUS] | – | Compound metabolized | Compound metabolized | Compound metabolized | Compound NOT metabolized | Compound metabolized | Compound metabolized
15 | CCCCCNC(=N)N/N=C/c1c[nH]c2ccc(OC)cc12.O=C(O)/C=C\C(=O)O [TEGASEROD MALEATE] | Compound NOT metabolized | Compound NOT metabolized | Compound NOT metabolized | Compound NOT metabolized | Compound NOT metabolized | Compound NOT metabolized | –
16 | CC[C@@]1(O)C(=O)OCc2c1cc1n(c2=O)Cc2cc3c(CN(C)C)c(O)ccc3nc2-1 [TOPOTECAN] | – | Compound NOT metabolized | Compound NOT metabolized | Compound NOT metabolized | Compound NOT metabolized | Compound NOT metabolized | Compound NOT metabolized
17 | CC(CN(C)C)CN1c2ccccc2CCc2ccccc21.O=C(O)/C=C\C(=O)O (stereo not drawn) [TRIMIPRAMINE MALEATE] | – | Compound NOT metabolized | Compound NOT metabolized | Compound NOT metabolized | – | – | Compound NOT metabolized
18 | CN1[C@@H]2CC[C@H]1C[C@@H](OC(=O)c1c[nH]c3ccccc13)C2 [TROPISETRON] | – | Compound NOT metabolized | Compound NOT metabolized | Compound NOT metabolized | Compound NOT metabolized | Compound NOT metabolized | Compound NOT metabolized
19 | Cc1ccc(-c2nc3ccc(C)cn3c2CC(=O)N(C)C)cc1 [ZOLPIDEM] | Compound NOT metabolized | Compound NOT metabolized | Compound NOT metabolized | Compound NOT metabolized | – | Compound NOT metabolized | Compound NOT metabolized
